Source: patent US9546164B2 (GENENTECH, INC., priority 2013, dated 2017)

Biological target: hNav1.7 (Homo sapiens (Human), UniProt Q15858)
Test: Tritiated sulfonamide competitive binding to membranes from cells expressing hNav1.7 and the β1 subunit;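 also: Filter-bound radioactivity counted by liquid scintillation, nonspecific binding defined with excess unlabelled ligand, IC50 fitted to percent inhibition of specific binding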
Settings: read-out: Ligand Binding Assay; 100 pM [3H]compound, membranes with hNav1.7 and β1 subunit, 18 h, room temperature

hNav1.7, sequence (Q15858 other isoform, or with tags, fused parts or gaps): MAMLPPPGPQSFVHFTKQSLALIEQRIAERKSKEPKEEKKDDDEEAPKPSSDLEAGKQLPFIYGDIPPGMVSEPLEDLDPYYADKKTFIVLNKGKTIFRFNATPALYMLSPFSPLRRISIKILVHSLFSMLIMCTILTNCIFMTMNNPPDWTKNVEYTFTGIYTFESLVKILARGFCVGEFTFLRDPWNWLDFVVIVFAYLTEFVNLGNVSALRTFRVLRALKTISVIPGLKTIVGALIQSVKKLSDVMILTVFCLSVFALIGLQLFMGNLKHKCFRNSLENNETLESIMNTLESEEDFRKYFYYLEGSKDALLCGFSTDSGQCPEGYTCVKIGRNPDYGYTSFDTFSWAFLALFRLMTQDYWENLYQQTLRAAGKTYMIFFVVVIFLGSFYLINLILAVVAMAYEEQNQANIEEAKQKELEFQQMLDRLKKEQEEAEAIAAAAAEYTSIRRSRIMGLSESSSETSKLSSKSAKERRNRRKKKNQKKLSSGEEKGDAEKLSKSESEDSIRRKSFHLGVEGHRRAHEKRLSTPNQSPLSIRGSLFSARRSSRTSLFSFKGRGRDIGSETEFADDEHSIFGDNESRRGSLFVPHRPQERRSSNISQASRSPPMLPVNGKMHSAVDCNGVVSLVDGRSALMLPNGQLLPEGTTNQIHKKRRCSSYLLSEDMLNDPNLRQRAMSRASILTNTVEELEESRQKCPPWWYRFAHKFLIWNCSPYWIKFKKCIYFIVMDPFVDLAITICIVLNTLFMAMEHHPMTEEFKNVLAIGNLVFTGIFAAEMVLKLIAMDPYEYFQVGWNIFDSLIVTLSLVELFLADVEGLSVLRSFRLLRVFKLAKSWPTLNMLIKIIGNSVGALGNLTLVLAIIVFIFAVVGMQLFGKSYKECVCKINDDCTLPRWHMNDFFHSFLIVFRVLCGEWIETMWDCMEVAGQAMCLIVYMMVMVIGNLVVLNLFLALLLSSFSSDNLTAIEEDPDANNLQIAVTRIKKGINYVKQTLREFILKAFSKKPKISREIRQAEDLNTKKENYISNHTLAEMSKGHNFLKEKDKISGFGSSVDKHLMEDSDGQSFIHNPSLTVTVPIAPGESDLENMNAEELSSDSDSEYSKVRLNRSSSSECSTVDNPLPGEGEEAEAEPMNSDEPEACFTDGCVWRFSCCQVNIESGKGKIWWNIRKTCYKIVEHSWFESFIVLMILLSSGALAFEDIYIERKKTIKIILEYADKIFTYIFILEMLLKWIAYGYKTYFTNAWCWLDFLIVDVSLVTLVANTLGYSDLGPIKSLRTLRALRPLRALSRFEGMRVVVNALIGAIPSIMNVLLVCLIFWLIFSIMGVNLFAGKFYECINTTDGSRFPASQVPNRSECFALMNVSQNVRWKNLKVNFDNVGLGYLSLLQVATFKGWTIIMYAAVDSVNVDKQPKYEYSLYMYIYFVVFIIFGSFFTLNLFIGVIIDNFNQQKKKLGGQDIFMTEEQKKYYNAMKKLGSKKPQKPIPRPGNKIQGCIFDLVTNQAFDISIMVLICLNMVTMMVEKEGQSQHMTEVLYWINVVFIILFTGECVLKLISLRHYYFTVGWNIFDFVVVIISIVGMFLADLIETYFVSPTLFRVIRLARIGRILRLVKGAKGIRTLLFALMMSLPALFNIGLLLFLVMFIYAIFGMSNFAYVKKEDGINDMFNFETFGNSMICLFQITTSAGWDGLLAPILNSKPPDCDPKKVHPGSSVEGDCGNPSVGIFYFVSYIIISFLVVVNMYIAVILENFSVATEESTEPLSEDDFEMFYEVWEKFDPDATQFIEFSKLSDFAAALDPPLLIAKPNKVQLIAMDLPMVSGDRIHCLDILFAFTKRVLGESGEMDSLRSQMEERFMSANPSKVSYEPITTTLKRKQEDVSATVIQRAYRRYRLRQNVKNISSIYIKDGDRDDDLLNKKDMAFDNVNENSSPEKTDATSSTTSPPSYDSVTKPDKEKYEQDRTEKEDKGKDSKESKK
hNav1.7, sequence (Q07699 19-218 partner): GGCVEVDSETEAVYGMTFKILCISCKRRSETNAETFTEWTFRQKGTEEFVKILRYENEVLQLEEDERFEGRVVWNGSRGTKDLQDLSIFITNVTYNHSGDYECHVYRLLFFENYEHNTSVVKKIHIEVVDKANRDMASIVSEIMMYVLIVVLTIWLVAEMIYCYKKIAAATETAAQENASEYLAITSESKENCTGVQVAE

IC50 [nM] | SMILES
1100 | CS(=O)(=O)NC(=O)c1cc(C2CC2)c(OCC2CCN(C(=O)c3ccccc3C(F)(F)F)CC2)cc1F [Example 255]
290 | O=C(NS(=O)(=O)C1CC1)c1cc(C2CC2)c(OCC2CCN(C(=O)c3ccccc3C(F)(F)F)CC2)cc1F [Example 256, 5-Cyclopropyl-N-(cyclopropylsulfonyl)-2-fluoro-4-((1-(2-(trifluoromethyl)benzoyl)piperidin-4-yl)methoxy)benzamide]
270 | CS(=O)(=O)NC(=O)c1cc(C2CC2)c(OCC2CCN(C(=O)c3ccc(Cl)cc3Cl)CC2)cc1F [Example 257, 5-Cyclopropyl-4-((1-(2,4-dichlorobenzoyl)piperidin-4-yl)methoxy)-2-fluoro-N-(methylsulfonyl)benzamide]
65 | O=C(NS(=O)(=O)C1CC1)c1cc(C2CC2)c(OCC2CCN(C(=O)c3ccc(Cl)cc3Cl)CC2)cc1F [Example 258, 5-Cyclopropyl-N-(cyclopropylsulfonyl)-4-((1-(2,4-dichlorobenzoyl)piperidin-4-yl)methoxy)-2-fluorobenzamide]
18 | COC[C@@H](c1cccc(Cl)c1)N1CCC(COc2cc(F)c(C(=O)NS(C)(=O)=O)cc2C2CC2)CC1 [Example 262, (R)-4-((1-(1-(3-chlorophenyl)-2-methoxyethyl)piperidin-4-yl)methoxy)-5-cyclopropyl-2-fluoro-N-(methylsulfonyl)benzamide]
91 | CS(=O)(=O)NC(=O)c1cc(C2CC2)c(OCC2CCN([C@@H](CO)c3cc(Cl)cc(Cl)c3)CC2)cc1F [Example 266]

More lines, now with the values behind:

SMILES | IC50 [nM]
CC[C@H](c1cc(Cl)cc(Cl)c1)N1CCC(COc2cc(F)c(C(=O)NS(C)(=O)=O)cc2C2CC2)CC1 [Example 240, (R)-5-cyclopropyl-4-((1-(1-(3,5-dichlorophenyl)propyl)piperidin-4-yl)methoxy)-2-fluoro-N-(methylsulfonyl)benzamide] | 2.4
CC[C@@H](c1cc(Cl)cc(Cl)c1)N1CCC(COc2cc(F)c(C(=O)NS(C)(=O)=O)cc2C2CC2)CC1 [Example 241, (S)-5-cyclopropyl-4-((1-(1-(3,5-dichlorophenyl)propyl)piperidin-4-yl)methoxy)-2-fluoro-N-(methylsulfonyl)benzamide] | 2.7
CS(=O)(=O)NC(=O)c1cc(C2CC2)c(OCC2CCN(Cc3cc(Cl)cc(Cl)c3F)CC2)cc1F [Example 242, 5-Cyclopropyl-4-((1-(3,5-dichloro-2-fluorobenzyl)piperidin-4-yl)methoxy)-2-fluoro-N-(methylsulfonyl)benzamide] | 3
C[C@@H](c1ccc(F)cc1Cl)N1CCC(COc2cc(F)c(C(=O)NS(C)(=O)=O)cc2C2CC2)CC1 [Example 243] | 11
C[C@H](c1ccc(F)cc1Cl)N1CCC(COc2cc(F)c(C(=O)NS(C)(=O)=O)cc2C2CC2)CC1 [Example 244] | 12
CS(=O)(=O)NC(=O)c1cc(C2CC2)c(OCC2CCN(Cc3ccc(C(F)(F)F)c(F)c3)CC2)cc1F [Example 247, 5-cyclopropyl-2-fluoro-4-((1-(3-fluoro-4-(trifluoromethyl)benzyl)piperidin-4-yl)methoxy)-N-(methylsulfonyl)benzamide] | 8.9
CS(=O)(=O)NC(=O)c1cc(C2CC2)c(OCC2CCN(CC3(C(F)(F)F)CC3)CC2)cc1F [Example 252, 5-cyclopropyl-2-fluoro-N-(methylsulfonyl)-4-((1-((1-(trifluoromethyl)cyclopropyl)methyl)piperidin-4-yl)methoxy)benzamide] | 50
CS(=O)(=O)NC(=O)c1cc(C2CC2)c(OCC2CCN(C(=O)c3cc(Cl)cc(Cl)c3)CC2)cc1F [Example 253, 5-Cyclopropyl-4-((1-(3,5-dichlorobenzoyl)piperidin-4-yl)methoxy)-2-fluoro-N-(methylsulfonyl)benzamide] | 20
O=C(NS(=O)(=O)C1CC1)c1cc(C2CC2)c(OCC2CCN(C(=O)c3cc(Cl)cc(Cl)c3)CC2)cc1F [Example 254, 5-Cyclopropyl-N-(cyclopropylsulfonyl)-4-((1-(3,5-dichlorobenzoyl)piperidin-4-yl)methoxy)-2-fluorobenzamide] | 26
